Test results as given in patent US4775692A, “2,5,6,7-tetranor-4,8-inter-m-phenylene PGI2 derivatives” (Toray Industries, Inc., priority 1986, dated 1988).
Values after ≈ are worked out from the molar mass of the structure shown. Where two headings read alike, the source gives them in different places.

Experiments:
corpus of stomach = assay: Gastric cytoprotection effect (lesion length / ulcer index after oral 0.2N NaOH); format: in vivo; settings: 1 h, 30 min before oral 0.2N NaOH, lesion measured one hour later, read-out: Gastric cytoprotection effect ED50 (dose reducing the sore to 50% of control)
Source text: Gastric cytoprotection effect
Gastric cytoprotection effect was studied according to the method by A. Robert (Gastroenterology, 77(3), 443, (1979)). Thirty min. after oral administration of the compound according to the invention, 0.2N NaOH was orally applied to the animals.
One hour later, the animals were killed under anesthesia by chloroform. The stomach was removed and fixed in a solution of 5% formalin. After fixation, the stomach was cut along the greater curvature. A total length of the lesion appearing on the corpus of stomach was then measured and served as an ulcer index.
The dose of the compound which may reduce the sore to 50% of that of the control was designated as ED50.
The gastric cytoprotection effects of the compounds according to the invention, which is thus represented by ED50, are summarized in Table 1.

gastric acid secretion [1] = assay: Inhibiting effect of gastric acid secretion, pylorus-ligated rat (Shay); format: in vivo; settings: pylorus ligation, injected into duodenum, 5 hours
Experimental: (§1) Inhibiting effect of gastric acid secretion
Under anesthesia by ether, the abdomen of the rat was incised in its median and a pylorus was ligated with silk thread according to Shay (Gastroenterology 5, 43 (1945)). Simultaneously, the compound was injected into a duodenum of the rat and then the incision was closed.
Five hours later, the median-incision of the abdomen was again performed and the esophargus was ligated and then the whole stomach was removed.
The stomach was cut along a greater curvature and the contents thereof was transferred into a graduated centrifuge tube. After centrifugation at 3,000 rpm for 10 min., a volume of a gastric juice was measured and a part of its supernatant was titrated to pH 7 with 0.1N NaOH using a pH-stat (Radio meter).
The mean dose of the compounds which may reduce the volume of gastric juice (ml) and acidity (mEq/ml) of a group of five animals to 50% of that of the controls were designated respectively as ED50.

gastric acid secretion [2] = assay: Inhibiting effect of gastric acid secretion, perfused stomach, pentagastrin-stimulated (Ghosh & Schild); format: in vivo, male SD rat; settings: urethane-anesthetized SD rat, pentagastrin 0.05 μg/kg/min, injected through femoral vein; ratio of area index to that of PGE2
Experimental: as §1
A male SD rat was incised in the abdomen under anesthesia by urethane and the lumen of a stomach was perfused with a physiolosical saline solution through a double-cannula inserted into a lumen of the stomach. A pH of a draining gastric acid was monitored using a pH-meter (M. Ghosh, H. Schild, Br. J. Pharmacol. 13, 54 (1958)). The secretion of gastric acid was stimulated by a continuous infusion of the pentagastrin at a rate of 0.05 μg/kg/min. When the pH of gastric acid became stable value of about 4, the compound was injected through a femoral vein. As an index of the inhibiting effect of gastric acid secretion by the compound was calculated from the area surrounded by the curve drawn by the time course of the pH of gastric acid, from the point increase by the injection of the compound and to the point it came back to baseline. The index thus obtained was compared to that of PGE2 and a ratio therebetween was shown in Table 3, as a relative effect of the compound.

platelet aggregation [3] = assay: Inhibiting effect of platelet aggregation (ADP-induced, human platelet-rich plasma); format: cell-based; settings: human PRP, compound added one minute before ADP
Experimental: Inhibiting effect of platelet aggregation
The blood taken from a human median cubital vein was centrifuged at 800 rpm for 10 min. and a supernatant thereof was used as a platelet-rich plasma (PRP). An aliquot of PRP thus obtained was put into a small tube, to which […] (ADP) was added to induce platelet aggregation. The extent of aggregation was determined by detecting a change in turbidity of the aliquot by an apparatus for measuring platelet aggregation (Rika-Denki, Tokyo). The compound was added one minute before the addition of ADP. The concentration of the compound which may reduce the platelet aggregation, 50% of the control was designated as IC50.

[4] = tested on: blood pressure of the carotid; assay: Hypotensive effect (carotid blood pressure, anesthetized rat); format: in vivo; settings: chloralose-anesthetized Wistar male rat, injected via catheter connected to femoral artery; read-out: Hypotensive effect ED25 (dose reducing blood pressure by 25 mmHg)
Experimental: A catheter was inserted to a carotid of the Wistar male rat under chloralose anesthesia. Another end of the catheter was connected to a polygraph with a pressure-transducer to detect a blood pressure of the carotid. The compound was injected via catheter connected to a femoral artery. The dose of the compound which may reduce the blood pressure in an amount of 25 mmHg was designated as ED25.

platelet aggregation [5] = settings: cited from earlier work
gastric acid secretion [6] = settings: cited from earlier work
peripheral blood vessel = settings: cited from earlier work
[7] = converted to 6-oxo PGF1α; cited from earlier work
[8] = cited from earlier work
[9] = acidity (mEq/ml) to 50% of controls, read-out: Inhibiting effect of gastric acid secretion ED50, Acidity
[10] = volume (ml) to 50% of controls, read-out: Inhibiting effect of gastric acid secretion ED50, Volume of the gastric juice

## O=C(O)COc1cccc2c1O[C@H]1C[C@@H](O)[C@H](/C=C/[C@@H](O)c3ccc(Cl)cc3)[C@@H]21 (relative stereo) [Compound 289, 15-(p-chlorophenyl)-2,5,6,7,16,17,18,19,20-nonanor-4-oxa-4,8-inter-m-phenylene PGI2]
Corpus of stomach
  ED50: 4 µg/kg
Gastric acid secretion [1]; [9]
  ED50: 970 µg/kg
Gastric acid secretion [1]; [10]
  ED50: 430 µg/kg
Gastric acid secretion [2]
  Inhibiting effect of gastric acid secretion, Relative effect (PGE2 = 1): 17
Platelet aggregation [3]
  IC50: 0.74 ng/mL (≈ 1.78 nM)
[4]
  ED (25 mmHg): 0.084 µg/kg

## CCCCC[C@H](O)/C=C/[C@@H]1[C@H]2C/C(=C/CCCC(=O)O)O[C@H]2C[C@H]1O [PGI2, Prostaglandin I2]
Platelet aggregation [5]
  platelet aggregation-inhibiting activity: potent
Gastric acid secretion [6]
  gastric acid secretion-inhibiting activity: potent
Peripheral blood vessel
  peripheral blood vessel-dilating activity: potent
[7]
  stability in neutral aqueous solutions: extremely unstable
[8]
  duration of physiological activities in vivo: only short duration
  stability in vivo: unstable in vivo

## O=C(O)COc1cccc2c1O[C@H]1C[C@@H](O)[C@H](/C=C/[C@@H](O)CCc3ccccc3)[C@@H]21 (relative stereo) [Compound 263, 17-phenyl-2,5,6,7,18,19,20-heptanor-4-oxa-4,8-inter-m-phenylene PGI2]
Corpus of stomach
  ED50: 13.7 µg/kg
Gastric acid secretion [1]; [9]
  ED50: 1300 µg/kg
Gastric acid secretion [1]; [10]
  ED50: 580 µg/kg
Gastric acid secretion [2]
  Inhibiting effect of gastric acid secretion, Relative effect (PGE2 = 1): 42
Platelet aggregation [3]
  IC50: 3.4 ng/mL (≈ 8.28 nM)
[4]
  ED (25 mmHg): 0.23 µg/kg

## O=C(O)COc1cccc2c1O[C@H]1C[C@@H](O)[C@H](/C=C/[C@@H](O)c3ccccc3Cl)[C@@H]21 (relative stereo) [Compound 281, 15-(o-chlorophenyl)-2,5,6,7,16,17,18,19,20-nonanor-4-oxa-4,8-inter-m-phenylene PGI2]
Corpus of stomach
  ED50: 2.4 µg/kg
Gastric acid secretion [1]; [9]
  ED50: 500 µg/kg
Gastric acid secretion [1]; [10]
  ED50: 460 µg/kg
Gastric acid secretion [2]
  Inhibiting effect of gastric acid secretion, Relative effect (PGE2 = 1): 10
Platelet aggregation [3]
  IC50: 0.82 ng/mL (≈ 1.97 nM)
[4]
  ED (25 mmHg): 0.14 µg/kg

## O=C(O)COc1cccc2c1O[C@H]1C[C@@H](O)[C@H](/C=C/[C@@H](O)c3ccccc3)[C@@H]21 (relative stereo) [Compound 256, 15-phenyl-2,5,6,7,16,17,18,19,20-nonanor-4-oxa-4,8-inter-m-phenylene PGI2]
Corpus of stomach
  ED50: 3.2 µg/kg
Gastric acid secretion [1]; [9]
  ED50: 110 µg/kg
Gastric acid secretion [1]; [10]
  ED50: 44 µg/kg
Gastric acid secretion [2]
  Inhibiting effect of gastric acid secretion, Relative effect (PGE2 = 1): 7.8
Platelet aggregation [3]
  IC50: 0.088 ng/mL (≈ 0.23 nM)
[4]
  ED (25 mmHg): 0.1 µg/kg

## CCCCC(C)[C@H](O)/C=C/[C@@H]1[C@H]2c3cccc(OCC(=O)O)c3O[C@H]2C[C@H]1O (relative stereo) [Compound 208, 16-Methyl-2,5,6,7-tetranor-4-oxa-4,8-inter-m-phenylene PGI2]
Corpus of stomach
  ED50: 0.92 µg/kg
Gastric acid secretion [1]; [9]
  ED50: 270 µg/kg
Gastric acid secretion [1]; [10]
  ED50: 140 µg/kg
Gastric acid secretion [2]
  Inhibiting effect of gastric acid secretion, Relative effect (PGE2 = 1): 45
Platelet aggregation [3]
  IC50: 0.47 ng/mL (≈ 1.2 nM)
[4]
  ED (25 mmHg): 0.074 µg/kg

## CCCOCC(C)(C)[C@H](O)/C=C/[C@@H]1[C@H]2c3cccc(OCC(=O)O)c3O[C@H]2C[C@H]1O (relative stereo) [Compound 309, 16,16-Dimethyl-20a-homo-2,5,6,7-tetranor-4,18-dioxa-4,8-inter-m-phenylene PGI2]
Corpus of stomach
  ED50: 7.47 µg/kg
Gastric acid secretion [1]; [9]
  ED50: 2010 µg/kg
Gastric acid secretion [1]; [10]
  ED50: 805 µg/kg
Gastric acid secretion [2]
  Inhibiting effect of gastric acid secretion, Relative effect (PGE2 = 1): 33
Platelet aggregation [3]
  IC50: 72 ng/mL (≈ 171 nM)
[4]
  ED (25 mmHg): 0.3 µg/kg

## O=C(O)COc1cccc2c1O[C@H]1C[C@@H](O)[C@H](/C=C/[C@@H](O)C3CCCC3)[C@@H]21 (relative stereo) [Compound 230, 15-cyclopentyl-2,5,6,7,16,17,18,19,20-nonanor-4-oxa-4,8-inter-m-phenylene PGI2]
Corpus of stomach
  ED50: 9.74 µg/kg
Gastric acid secretion [1]; [9]
  ED50: 880 µg/kg
Gastric acid secretion [1]; [10]
  ED50: 330 µg/kg
Gastric acid secretion [2]
  Inhibiting effect of gastric acid secretion, Relative effect (PGE2 = 1): 1.4
Platelet aggregation [3]
  IC50: 0.19 ng/mL (≈ 0.507 nM)
[4]
  ED (25 mmHg): 0.094 µg/kg

## CCCCC[C@H](O)/C=C/[C@@H]1[C@H]2c3cccc(OCC(=O)O)c3O[C@H]2C[C@H]1O (relative stereo) [Compound 156, 2,5,6,7-Tetranor-4-oxa-4,8-inter-m-phenylene PGI2]
Corpus of stomach
  ED50: 11.3 µg/kg
Gastric acid secretion [1]; [9]
  ED50: 2330 µg/kg
Gastric acid secretion [1]; [10]
  ED50: 330 µg/kg
Gastric acid secretion [2]
  Inhibiting effect of gastric acid secretion, Relative effect (PGE2 = 1): 39
Platelet aggregation [3]
  IC50: 0.56 ng/mL (≈ 1.49 nM)
[4]
  ED (25 mmHg): 0.46 µg/kg
